Experimental data published in paper PMC2362650, “Phase I and pharmacokinetic study of the topoisomerase II catalytic inhibitor fostriecin” (British Journal of Cancer, 1999).

Assay: Phase I study: toxicity graded with NCI common toxicity criteria in patients
Assay type: in vivo, human
Description: Fostriecin (CI-920) is a topoisomerase (topo) II catalytic activity inhibitor (Boritzki et al, 1988) (Figure 1). This novel class of topo II-targeting drugs is considered of potential value for treatment of patients with tumours resistant to classic topo II poisons, including anthracyclines and podophyllotoxins (Cummings and Smyth, 1993). The nuclear enzyme topo II is essential for the regulation of DNA conformation (reviewed in Osheroff et al, 1991). Central in its action is the formation of a complex with DNA. Stabilization of this complex by topo II poisons induces DNA damage and cell death (Froelich-Ammon and Osheroff, 1995). Decreased complex formation due to decreased topo II levels is considered to be an important mechanism of tumour-resistance to topo II poisons (Beck and Danks, 1991). The topo II catalytic inhibitor fostriecin is expected to have increased activity against tumour cells with low topo II levels and this was confirmed in in vitro studies (De Jong et al, 1991). […] Because of increased toxi- city of fostriecin in dogs compared to mice, a dose below one-third of the one-tenth mouse equivalent LD10, 2 mg m-2 day-1, was chosen as starting dose in humans (Clinical Brochure Fostriecin, 1991). […] We also performed an analysis of the human pharmacokinetics of fostriecin and ex vivo experiments to investigate if the plasma drug concentrations achieved were sufficient to inhibit a tenipo- side-resistant tumour cell line. The maximum tolerated dose (MTD) of fostriecin could not be established because drug supply was stopped prematurely. However, results of this study may provide a basis for continued clinical development of this agent. PATIENTS AND METHODS Patient selection, drug administration and evaluation Patient eligibility criteria were: histologically confirmed diagnosis of a solid tumour, no longer amenable to established forms of treatment; age 18-75 years; Eastern Cooperative Oncology Group (ECOG) performance status 2; life expectancy 12 weeks; no Phase I and pharmacokinetic study of the topoisomerase II catalytic inhibitor fostriecin RS de Jong1, NH Mulder1, DRA Uges2, DTh Sleijfer1, FJP Hoppener4, HJM Groen3, PHB Willemse1, WTA van der Graaf1 and EGE de Vries1 Departments of 1Medical Oncology, 2Pharmacy and Toxicology, and 3Pulmonary Diseases, University Hospital Groningen, The Netherlands; 4EORTC New Drug Development Office, Amsterdam, The Netherlands Summary We conducted a phase I and pharmacokinetic study of the topoisomerase II catalytic inhibitor fostriecin. Fostriecin was administered intravenously over 60 min on days 1-5 at 4-week intervals. Dose was escalated from 2 mg m-2 day-1 to 20 mg m-2 day-1 in 20 patients. Drug pharmacokinetics was analysed with high performance liquid chromatography with UV-detection. Plasma collected during drug administration was tested in vitro for growth inhibition of a teniposide-resistant small-cell lung cancer (SCLC) cell line. The predominant toxicities were elevated liver transaminases (maximum common toxicity criteria (CTC) grade 4) and serum creatinine (maximum CTC grade 2). […] Duration of elevated alanine-amino transferase (ALT) was dose-limiting in one patient at 20 mg m-2. Other frequent toxicities were grade 1-2 nausea/vomiting, fever and mild fatigue. […] A metabolite, most probably dephosphorylated fostriecin, was detected in plasma and urine. […] However, further escalation seems possible and is warranted to achieve potentially effective drug levels. Fostriecin has a short plasma half-life and longer duration of infusion should be considered. […]

[1] = 4 mg m-2, 5 patients/11 courses
[2] = 6.6 mg m-2, 3 patients/4 courses
[3] = 10 mg m-2, 3 patients/7 courses

With `C[C@@](O)(/C=C/[C@H]1CC=CC(=O)O1)[C@@H](C[C@@H](O)\C=C/C=C\C=C\CO)OP(=O)(O)O` [fostriecin] the “CTC-grade 1 ALP: courses causing toxicity, all full-dose courses” value (“CTC-grade 1 ALP … all full-dose courses” for short) (2 mg m-2, 4 patients/8 courses) was 2, the “CTC-grade 1 ALP: patients developing toxicity in first course” value (“CTC-grade 1 ALP … in first course” below) (2 mg m-2, 4 patients/8 courses) was 1 and the “CTC-grade 1 ALT: courses causing toxicity, all full-dose courses” value (“CTC-grade 1 ALT … all full-dose courses” below) (2 mg m-2, 4 patients/8 courses) was 6. The “CTC-grade 1 ALT: patients developing toxicity in first course” value (shortened to “CTC-grade 1 ALT … in first course”) (2 mg m-2, 4 patients/8 courses) was 2, the “CTC-grade 1 AST: courses causing toxicity, all full-dose courses” value (from here on “CTC-grade 1 AST … all full-dose courses”) (2 mg m-2, 4 patients/8 courses) was 2 and the “CTC-grade 1 AST: patients developing toxicity in first course” value (“CTC-grade 1 AST … in first course” below) (2 mg m-2, 4 patients/8 courses) was 2. The “CTC-grade 1 GGT: courses causing toxicity, all full-dose courses” value (“CTC-grade 1 GGT … all full-dose courses” below) (2 mg m-2, 4 patients/8 courses) was 2, the “CTC-grade 1 GGT: patients developing toxicity in first course” value (shortened to “CTC-grade 1 GGT … in first course”) (2 mg m-2, 4 patients/8 courses) was 0 and the “CTC-grade 1 creatinine: courses causing toxicity, all full-dose courses” value (from here on “CTC-grade 1 creatinine … all full-dose courses”) (2 mg m-2, 4 patients/8 courses) was 4. For the same molecule, the “CTC-grade 1 creatinine: patients developing toxicity in first course” value (shortened to “CTC-grade 1 creatinine … in first course”) (2 mg m-2, 4 patients/8 courses) was 2, the “CTC-grade 2 ALT: courses causing toxicity, all full-dose courses” value (“CTC-grade 2 ALT … all full-dose courses” for short) (2 mg m-2, 4 patients/8 courses) was 1 and the “CTC-grade 2 ALT: patients developing toxicity in first course” value (“CTC-grade 2 ALT … in first course” below) (2 mg m-2, 4 patients/8 courses) was 1. The “CTC-grade 2 GGT: courses causing toxicity, all full-dose courses” value (“CTC-grade 2 GGT … all full-dose courses” below) (2 mg m-2, 4 patients/8 courses) was 2, the “CTC-grade 2 GGT: patients developing toxicity in first course” value (shortened to “CTC-grade 2 GGT … in first course”) (2 mg m-2, 4 patients/8 courses) was 1 and the “CTC-grade 1 ALP … all full-dose courses” value [1] was 3. For the same molecule, the “CTC-grade 1 ALP … in first course” value [1] was 3, the “CTC-grade 1 ALT … all full-dose courses” value [1] was 8 and the “CTC-grade 1 ALT … in first course” value [1] was 4. For the same molecule, the “CTC-grade 1 AST … all full-dose courses” value [1] was 7, the “CTC-grade 1 AST … in first course” value [1] was 3 and the “CTC-grade 1 GGT … all full-dose courses” value [1] was 1. The “CTC-grade 1 GGT … in first course” value [1] was 1, the “CTC-grade 1 creatinine … all full-dose courses” value [1] was 7 and the “CTC-grade 1 creatinine … in first course” value [1] was 3. For the same molecule, the “CTC-grade 2 ALP: courses causing toxicity, all full-dose courses” value [1] was 1, the “CTC-grade 2 ALP: patients developing toxicity in first course” value [1] was 0 and the “CTC-grade 2 ALT … all full-dose courses” value [1] was 1. The “CTC-grade 2 ALT … in first course” value [1] was 0, the “CTC-grade 2 AST: courses causing toxicity, all full-dose courses” value (from here on “CTC-grade 2 AST … all full-dose courses”) [1] was 1 and the “CTC-grade 2 AST: patients developing toxicity in first course” value (from here on “CTC-grade 2 AST … in first course”) [1] was 1. For the same molecule, the “CTC-grade 2 GGT … all full-dose courses” value [1] was 0, the “CTC-grade 2 GGT … in first course” value [1] was 0 and the “CTC-grade 3 ALT: courses causing toxicity, all full-dose courses” value (from here on “CTC-grade 3 ALT … all full-dose courses”) [1] was 2. The “CTC-grade 3 ALT: patients developing toxicity in first course” value (from here on “CTC-grade 3 ALT … in first course”) [1] was 1, the “CTC-grade 3 AST: courses causing toxicity, all full-dose courses” value [1] was 1 and the “CTC-grade 3 AST: patients developing toxicity in first course” value [1] was 0. The “CTC-grade 3 GGT: courses causing toxicity, all full-dose courses” value (from here on “CTC-grade 3 GGT … all full-dose courses”) [1] was 4, the “CTC-grade 3 GGT: patients developing toxicity in first course” value (from here on “CTC-grade 3 GGT … in first course”) [1] was 1 and the “CTC-grade 1 ALP … all full-dose courses” value [2] was 3. For the same molecule, the “CTC-grade 1 ALP … in first course” value [2] was 0, the “CTC-grade 1 ALT … all full-dose courses” value [2] was 2 and the “CTC-grade 1 ALT … in first course” value [2] was 2. For the same molecule, the “CTC-grade 1 AST … all full-dose courses” value [2] was 0, the “CTC-grade 1 AST … in first course” value [2] was 0 and the “CTC-grade 1 GGT … all full-dose courses” value [2] was 0. The “CTC-grade 1 GGT … in first course” value [2] was 0, the “CTC-grade 1 creatinine … all full-dose courses” value [2] was 1 and the “CTC-grade 1 creatinine … in first course” value [2] was 1. For the same molecule, the “CTC-grade 2 ALP: courses causing toxicity, all full-dose courses” value [2] was 1, the “CTC-grade 2 ALP: patients developing toxicity in first course” value [2] was 0 and the “CTC-grade 2 ALT … all full-dose courses” value [2] was 1. The “CTC-grade 2 ALT … in first course” value [2] was 1, the “CTC-grade 2 AST … all full-dose courses” value [2] was 1 and the “CTC-grade 2 AST … in first course” value [2] was 1. For the same molecule, the “CTC-grade 2 GGT … all full-dose courses” value [2] was 0, the “CTC-grade 2 GGT … in first course” value [2] was 0 and the “CTC-grade 2 bilirubin: courses causing toxicity, all full-dose courses” value [2] was 1. For the same molecule, the “CTC-grade 2 bilirubin: patients developing toxicity in first course” value [2] was 1, the “CTC-grade 3 ALT … all full-dose courses” value [2] was 1 and the “CTC-grade 3 ALT … in first course” value [2] was 0. The “CTC-grade 3 AST: courses causing toxicity, all full-dose courses” value [2] was 2, the “CTC-grade 3 AST: patients developing toxicity in first course” value [2] was 1 and the “CTC-grade 3 GGT … all full-dose courses” value [2] was 1. The “CTC-grade 3 GGT … in first course” value [2] was 1, the “CTC-grade 1 ALP … all full-dose courses” value [3] was 1 and the “CTC-grade 1 ALP … in first course” value [3] was 1. The “CTC-grade 1 ALT … all full-dose courses” value [3] was 0, the “CTC-grade 1 ALT … in first course” value [3] was 0 and the “CTC-grade 1 AST … all full-dose courses” value [3] was 3. For the same molecule, the “CTC-grade 1 AST … in first course” value [3] was 0, the “CTC-grade 1 GGT … all full-dose courses” value [3] was 6 and the “CTC-grade 1 GGT … in first course” value [3] was 2. The “CTC-grade 1 creatinine … all full-dose courses” value [3] was 3, the “CTC-grade 1 creatinine … in first course” value [3] was 2 and the “CTC-grade 2 ALT … all full-dose courses” value [3] was 3. The “CTC-grade 2 ALT … in first course” value [3] was 0, the “CTC-grade 2 AST … all full-dose courses” value [3] was 1 and the “CTC-grade 2 AST … in first course” value [3] was 1. For the same molecule, the “CTC-grade 2 GGT … all full-dose courses” value [3] was 0, the “CTC-grade 2 GGT … in first course” value [3] was 0 and the “CTC-grade 2 creatinine: courses causing toxicity, all full-dose courses” value [3] was 4. For the same molecule, the “CTC-grade 2 creatinine: patients developing toxicity in first course” value [3] was 1, the “CTC-grade 3 ALT … all full-dose courses” value [3] was 2 and the “CTC-grade 3 ALT … in first course” value [3] was 2. For the same molecule, the “CTC-grade 3 GGT … all full-dose courses” value [3] was 1 and the “CTC-grade 3 GGT … in first course” value [3] was 1.
